The results in this text go back to US6608086B2, “Dihydropyridines and new uses thereof” (Synaptic Pharmaceutical Corporation, priority 1993, dated 2003).

The target in assay [1] is T1, α1A Human Adrenergic Receptor (Homo sapiens, UniProt P25100).
T1 construct: The entire coding region of α1A (1719 bp); expressed in transfected cells
T1 sequence (P25100 1-572): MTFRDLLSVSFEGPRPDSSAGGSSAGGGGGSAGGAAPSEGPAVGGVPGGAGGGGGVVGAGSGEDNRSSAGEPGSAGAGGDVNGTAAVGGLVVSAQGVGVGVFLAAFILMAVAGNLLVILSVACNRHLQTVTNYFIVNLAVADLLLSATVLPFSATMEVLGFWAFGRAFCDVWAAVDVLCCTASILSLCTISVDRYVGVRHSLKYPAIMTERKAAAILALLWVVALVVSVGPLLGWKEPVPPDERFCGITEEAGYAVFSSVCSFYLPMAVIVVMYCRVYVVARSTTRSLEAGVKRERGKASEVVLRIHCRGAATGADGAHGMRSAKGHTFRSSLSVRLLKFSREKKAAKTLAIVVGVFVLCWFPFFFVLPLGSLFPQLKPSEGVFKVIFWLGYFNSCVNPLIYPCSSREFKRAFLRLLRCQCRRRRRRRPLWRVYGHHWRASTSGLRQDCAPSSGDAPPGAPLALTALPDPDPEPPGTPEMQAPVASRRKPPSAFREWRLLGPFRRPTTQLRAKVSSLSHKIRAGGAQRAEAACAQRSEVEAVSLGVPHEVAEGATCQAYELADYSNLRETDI
In words: Radioligand binding, [3H]prazosin, cloned human α1A adrenergic receptor. Put shortly:
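Membranes from LM(tk−) cells transfected with human α1A were incubated with 0.5 nM [3H]prazosin in 50 mM Tris-HCl, 1 mM MgCl2, 0.1% ascorbic acid, pH 7.5, for 20 min at 37° C. Nonspecific binding was defined with 10 μM phentolamine. Bound ligand was separated by GF/B filtration.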

For assay [2], the target named is T2, α1B Human Adrenergic Receptor (Homo sapiens, UniProt P35368).
T2 construct: The entire coding region of α1B (1563 bp); expressed in transfected cells
T2 sequence (P35368 1-520): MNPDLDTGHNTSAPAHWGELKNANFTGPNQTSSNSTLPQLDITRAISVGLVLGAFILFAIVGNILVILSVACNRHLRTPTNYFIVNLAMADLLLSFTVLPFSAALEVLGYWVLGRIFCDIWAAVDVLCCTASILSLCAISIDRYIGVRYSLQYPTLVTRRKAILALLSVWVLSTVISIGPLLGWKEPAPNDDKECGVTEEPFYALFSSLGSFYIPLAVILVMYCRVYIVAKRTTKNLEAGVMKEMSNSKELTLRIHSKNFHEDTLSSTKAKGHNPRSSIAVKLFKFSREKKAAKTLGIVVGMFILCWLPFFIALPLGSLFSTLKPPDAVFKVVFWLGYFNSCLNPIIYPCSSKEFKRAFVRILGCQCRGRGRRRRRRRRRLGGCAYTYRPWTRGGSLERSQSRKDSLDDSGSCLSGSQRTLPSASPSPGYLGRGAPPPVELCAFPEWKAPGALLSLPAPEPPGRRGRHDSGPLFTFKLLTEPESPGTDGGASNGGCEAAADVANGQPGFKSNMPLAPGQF
In words: Radioligand binding, [3H]prazosin, cloned human α1B adrenergic receptor. To be noted: LM(tk-) cell membranes. Summed up: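 Membranes from stably transfected LM(tk−) cells, resuspended in 50 mM Tris-HCl, 1 mM MgCl2, 0.1% ascorbic acid, pH 7.5, were incubated with 0.5 nM [3H]prazosin for 20 min at 37° C. Nonspecific binding defined with 10 μM phentolamine; bound ligand separated by GF/B filtration.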

Assay [3] deals with T3, α2A receptor (Homo sapiens, UniProt P08913).
T3 construct: host or cells: LM(tk-) cells, line L-α2A
T3 sequence (P08913 1-465): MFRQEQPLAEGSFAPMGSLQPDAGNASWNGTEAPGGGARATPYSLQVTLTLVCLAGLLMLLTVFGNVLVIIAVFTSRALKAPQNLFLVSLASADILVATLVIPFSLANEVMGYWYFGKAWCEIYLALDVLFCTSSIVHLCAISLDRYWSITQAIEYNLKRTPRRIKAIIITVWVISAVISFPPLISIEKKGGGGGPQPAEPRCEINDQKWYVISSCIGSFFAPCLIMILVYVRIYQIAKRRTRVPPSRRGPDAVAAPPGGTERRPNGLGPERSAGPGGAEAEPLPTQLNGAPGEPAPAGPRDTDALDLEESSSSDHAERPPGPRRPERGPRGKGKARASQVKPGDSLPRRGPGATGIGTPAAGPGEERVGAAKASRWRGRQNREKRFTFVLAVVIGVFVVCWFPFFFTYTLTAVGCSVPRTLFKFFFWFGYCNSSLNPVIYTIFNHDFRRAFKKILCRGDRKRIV
In words: Competition binding, [3H]rauwolscine, human α2A receptor. Put shortly: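 Lysates of LM(tk−) cells stably expressing each α2 subtype were suspended in 25 mM glycylglycine buffer (pH 7.6 at room temperature). Equilibrium competition binding used 0.5 nM [3H]rauwolscine, with nonspecific binding defined by 10 μM phentolamine; bound radioligand was separated by GF/B filtration.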

The mark [4] stands for this setting: cloned human receptor, mean, read-out: PKi alpha-1 1b (converted).
Setting [5] is: [3H]prazosin, cloned human receptor, LM(tk-) cell membranes, mean, read-out: PKi alpha-1 1a (converted).
[6] abbreviates: [3H]rauwolscine, human receptor, LM(tk-) cell lysates, mean, read-out: PKi alpha-2 2a (converted).
The mark [7] stands for this setting: PKi alpha-1 1a, [3H]prazosin, cloned human α1A receptor, LM(tk-) cell membranes.
[8] abbreviates: PKi alpha-1 1b, cloned human α1B receptor.
Setting [9] is: [3H]rauwolscine, human α2A receptor, LM(tk-) cells, read-out: PKi alpha-2 2a (converted).
Setting [10] is: cloned human α1B receptor, read-out: PKi alpha-1 1b (converted).
[11] abbreviates: [3H]prazosin, cloned human α1A receptor, LM(tk-) cell membranes, read-out: PKi alpha-1 1a (converted).

Where two headings read alike, the source gives them in different places.

Take `CCC1=C(C(=O)NC)C(c2ccc([N+](=O)[O-])cc2)C(C(=O)NCCCN2CCC(c3ccccc3)(c3ccccc3)CC2)=C(COCCN)N1` (stereo not drawn) [Example 225, 2-((2-Aminoethyl)oxy)methyl-6-ethyl-1,4-dihydro-5-N-methylcarboxamido-4-(4-nitro)phenyl-3-(3-(N-(4,4-diphenylpiperidin-1-yl)propyl))carboxamidopyridine]: the values for the Ki in assay [1] (PKi alpha-1 1a), in assay [2] (setting [4]) and in assay [3] were 1620 nM, 501 nM and 2040 nM, respectively.
As to `CCC1=C(C(=O)NC)C(c2ccc([N+](=O)[O-])cc2)C(C(=O)NCCCN2CCC(C(=O)OC)(c3ccccc3)CC2)=C(COCCN)N1` (stereo not drawn) [Example 229, 2-((2-Aminoethyl)oxy)methyl-6-ethyl-1,4-dihydro-3-(N-(3-(4-methoxycarbonyl-4-phenylpiperidin-1-yl)propyl))carbo xamido-5-N-methylcarboxamido-4-(4-nitro)phenylpyridine], the results for the Ki in assay [1] (setting [5]), in assay [2] (setting [4]) and in assay [3] (setting [6]) were 4170 nM, 1380 nM and 3020 nM, respectively.
Turning to `CCNC(=O)C1=C(CC)NC(COCCN)=C(C(=O)NCCCN2CCC(C(=O)OC)(c3ccccc3)CC2)C1c1ccc([N+](=O)[O-])cc1` (stereo not drawn) [Example 233, 2-((2-Aminoethyl)oxy)methyl-6-ethyl-5-N-ethylcarboxamido-1,4-dihydro-3-(N-(3-(4-methoxycarbonyl-4-phenylpiperidin-1-yl)propyl))carboxamido-4-(4-nitro)phenylpyridine], the Ki in assay [1] (PKi alpha-1 1a) was 4070 nM; in assay [2] (setting [4]), 1620 nM; in assay [3] it was 4790 nM.
For the compound `CCC1=C(C(N)=O)C(c2ccc([N+](=O)[O-])cc2)C(C(=O)NCCCN2CCC(C(=O)OC)(c3ccccc3)CC2)=C(COCCN)N1` (stereo not drawn) [Example 234, 2-((2-Aminoethyl)oxy)methyl-5-carboxamido-6-ethyl-1,4-dihydro-3-(N-(3-(4-methoxycarbonyl-4-phenylpiperidin-1-yl)propyl)) carboxamido-4-(4-nitro)phenylpyridine], the Ki in assay [1] (setting [5]) is 2750 nM; in assay [2] (setting [4]), 1290 nM; in assay [3] (setting [6]), 1230 nM.
In the case of `CCC1=C(C(=O)OC)C(c2ccc([N+](=O)[O-])cc2)C(C(=O)NCCCN2CCC(C(=O)OC)(c3ccccc3)CC2)=C(COCCN)N1` (stereo not drawn) [Example 235, 2-((2-Aminoethyl)oxy)methyl-6-ethyl-1,4-dihydro-5-methoxycarbonyl-3-(N-(3-(4-methoxycarbonyl-4-phenylpiperidin-1-yl)propyl))carboxamido-4-(4-nitro)phenylpyridine], the Ki in assay [1] (PKi alpha-1 1a) was 282 nM; in assay [2] (setting [4]) it was 219 nM; in assay [3] it was 2400 nM.
`CC(=O)C1=C(C)NC(COCCN)=C(C(=O)NCCCN2CCC(c3ccccc3)(c3ccccc3)CC2)C1c1ccc([N+](=O)[O-])cc1` (stereo not drawn) [Example 237, 5-Acetyl-2-((2-aminoethyl)oxy)methyl-1,4-dihydro-6-methyl-4-(4-nitro)phenyl 3-(N-(3-(4,4-diphenylpiperidin-1-yl)propyl)) carboxamidopyridine]: the Ki in assay [1] (PKi alpha-1 1a, [3H]prazosin, cloned human receptor, LM(tk-) cell membranes, mean) is 380 nM; in assay [2] (PKi alpha-1 1b, cloned human receptor, mean), 200 nM; in assay [3] (setting [6]), 794 nM.
As to `CC(=O)C1=C(C)NC(COCCN)=C(C(=O)NCCCN2CCC(c3ccccc3)(c3ccccc3)CC2)C1c1ccc2c(c1)OCO2` (stereo not drawn) [Example 239, 5-Acetyl-2-((2-aminoethyl)oxy)methyl-1,4-dihydro-6-methyl-4-(3,4-methylenedioxy)phenyl-3-(N-(3-(4,4-dipheylpiperidin-1-yl)propyl))carboxamidopyridine], the Ki in assay [1] (setting [7]) was 275 nM; in assay [2] (setting [8]), 257 nM; in assay [3] (setting [9]), 832 nM.
With `CCOC(=O)C1(c2ccccc2)CCN(CCCNC(=O)C2=C(COC)NC(CC)=C(C(=O)O)C2c2ccc([N+](=O)[O-])cc2)CC1` (stereo not drawn) [Example 240, 3-(N-3-(4-Ethoxycarbonyl-4-phenylpiperidin-1-yl)propyl)carboxamido-6-ethyl-1,4-dihydro-2-(methyloxy)methyl-4-(4-nitro)phenylpyridine-5-carboxylic Acid], the Ki in assay [1] (PKi alpha-1 1a) is 10000 nM; in assay [2] (setting [10]) it was 4470 nM; in assay [3] it was 18600 nM.
Taken in the same sequence, the figures for `COC(=O)C1(c2ccccc2)CCN(CCCNC(=O)C2=C(COCCCN)NC(C)=C(C(C)=O)C2c2ccc([N+](=O)[O-])cc2)CC1` (stereo not drawn) [Example 241, 5-Acetyl-2-((3-aminopropyl)oxy)methyl-1,4-dihydro-3-(N-(3-(4-methoxycarbonyl-4-phenylpiperidin-1-yl)propyl))carboxamido-6-methyl-4-(4-nitro)phenylpyridine] were 1450 nM, 490 nM and 1580 nM.
Regarding `CC(=O)C1=C(C)NC(COCCN)=C(C(=O)NCCCN2CCC(c3ccccc3)(c3ccccc3)CC2)C1c1ccc(F)cc1` (stereo not drawn) [Example 242, 5-Acetyl-2-((2-aminoethyl)oxy)methyl-4-(4-fluoro)phenyl-1,4-dihydro-6-methyl-3-(N-(3-(4,4-diphenylpiperidin-1-yl)propyl))carboxamidopyridine], the Ki in assay [1] (setting [7]) was 224 nM; in assay [2] (setting [8]), 83.2 nM; in assay [3] (setting [9]), 1410 nM.
As for `CCOC(=O)C1(c2ccccc2)CCN(CCCNC(=O)C2=C(COCC(F)(F)F)NC(C)=C(C(N)=O)C2c2ccc([N+](=O)[O-])cc2)CC1` (stereo not drawn) [Example 243, 5-Carboxamido-3-(N-(3-(4-ethoxycarbonyl-4-phenylpiperidin-1yl)propyl))carboxamido-2-((2,2,2-trifluoroethyl)oxy)methyl-1,4dihydro-6-methyl-4-(4-nitro)phenylpyridine], the Ki is 1510 nM in assay [1] (setting [11]), 759 nM in assay [2] (setting [10]) and 2240 nM in assay [3] (setting [9]).
In the case of `CCOC(=O)C1(c2ccccc2)CCN(CCCNC(=O)C2=C(COCCN)NC(C)=C(C(C)=O)C2c2ccc3c(c2)OCO3)CC1` (stereo not drawn) [Example 244, 5-Acetyl-2-((2-aminoethyl)oxy)methyl-3-(N-(3-(4-ethoxycarbonyl-4-phenylpiperidin-1-yl)propyl)) carboxamido-1,4-dihydro-6-methyl-4-(3,4-methylenedioxy) phenylpyridine], the Ki in assay [1] (setting [11]) was 851 nM; in assay [2] (setting [10]) it was 513 nM; in assay [3] (setting [9]), 1020 nM.
